Data published in patent EP4772500A1, “NOVEL ISOXAZOLE COMPOUND AS TM4SF5-SPECIFIC INHIBITOR AND USE THEREOF” (Seoul National University R&DB Foundation, priority 2023, dated 2025).

Key:
[1] = test system: SNU761 cells expressing HA-TM4SF5 and FLAG-SLAMF7; experiment: Immunofluorescence microscopy of SLAMF7 localization (Pearson's correlation); assay type: cell-based, human; settings: 2.5 µM, 24 h, vs DMSO (FIG. 15g-h)
Experimental: After putting a cover glass into each well of a 12-well plate, 10 µg/ml fibronectin (35600, BD Biosciences) diluted in PBS was added thereto and left at room temperature for 1 hour for coating. After washing three times with PBS, 20,000 cells were seeded on each cover glass and cultured in a cell incubator at 37°C for 16 hours. After cultivation, the various expression vectors mentioned above were transfected using Lipofectamine 3000 (L3000015, Invitrogen) and cultured for 24 hours, and then isoxazole was treated or not treated for 24 hours. The cells were fixed with cold 99% methanol at room temperature for 15 minutes and then blocked with 1% BSA in PBS for 1 hour. Primary antibodies, anti-FLAG (NB600-344, Novus Biologicals), anti-LAMP1 (#9091, Cell Signaling Tech,), anti-ZO-1 (402200, Invitrogen), anti-HA (901515, BioLegend), and anti-SLAMF7 (sc-390840, Santa Cruz Biotech.), were diluted in 1% BSA in PBS at a ratio of 1:500 and reacted at 4°C for 16 hours. The next day, the cover glasses were washed three times with PBS, and then fluorescence-conjugated secondary antibodies (Alexa Fluor 488 [goat: A11055 and mouse: A21202] and 555 [goat: A21432 and mouse: A31570] from Invitrogen) were diluted in 1% BSA in PBS at a ratio of 1:500 and reacted at room temperature for 1 hour. After washing three times with PBS, mounting was performed using ProLong™ Gold Antifade (P36930, Invitrogen). Cells were randomly photographed using a Nikon Eclipse Ti microscope with a C2 confocal system, and then the images were analyzed using NIS-Elements software (Nikon, Melville, NY, USA), and colocalization of SLAMF7 with LAMP1 or ZO-1 was calculated using Pearson's correlation coefficients. All images were photographed under the same software settings and equally corrected with Adobe Photoshop. Each dot in the graphs represents a result measured from a single cell.
SNU449-TM4SF5 cells overexpressing TM4SF5 were seeded on cover glasses pre-coated with collagen Type I (10 µg/ml), and 15 hour later, PD-L1-HA cDNA was transfected using Lipofectamine 3000 (Thermo Fisher). […] After reacting again with secondary antibodies at room temperature for 30 minutes (TRITC fluorescence for LAMP1, TRITC or Alexa Fluor® 488 fluorescence for TM4SF5, and FITC fluorescence for PD-L1 or SLAMF7), the expression levels, localizations, and colocalizations (indicated in yellow) of the fluorescently-stained factors were observed using a confocal fluorescence microscope.
(a) SNU761 cells expressing HA-EV or HA-TM4SF5 and FLAG-SLAMF7 were stored at 4°C and then cultured at 37°C for the given periods. […] The colocalization coefficient was calculated by Pearson's correlation (b). […]

Human Jurkat T cells = experiment: T cell activation (Granzyme B, PD-1) after PMA/INO; assay type: cell-based; settings: for activation by PMA/INO (Granzyme B production): PMA (10 ng/ml) and INO (1 µg/ml), 24 hours (FIG. 18a)
Experimental: (a) Human Jurkat T cells were activated by treating with PMA (10 ng/ml) and INO (1 µg/ml) for 24 hours. A non-treated state was also included as a control. […] (b) Human Jurkat T cells were either not treated or treated with PMA (25 ng/ml) and INO (1 µg/ml) for 24 hours, and IL-21 was treated at a level of 50 ng/ml for the last 6 hours. Simultaneously with the PMA/INO treatment, ST-5-002 was treated or not treated at 2.5 µM. At this time, the expression levels of Granzyme B and PD-1, or the phosphorylation of Ser473 of AKTs and Thr202/Tyr204 of ERKs, were enhanced by PMA/INO.

SMILES | SLAMF7 colocalized at the lysosomal membrane [1] | SLAMF7 expression/localization at the plasma membrane (PM) [1] | activation by PMA/INO (Granzyme B production) (Human Jurkat T cells) | expression of Granzyme B and PD-1 (Human Jurkat T cells; PMA (25 ng/ml) and INO (1 µg/ml), 2.5 µM alone (FIG. 18b)) | level of Granzyme B (Human Jurkat T cells; PMA/INO, 2.5 µM together with IL-21 50 ng/ml (FIG. 18b))
CC(=O)Nc1ccc(-c2cc(-c3ccc(O)cc3)no2)cc1 [ST-5-001, N-(4-(3-(4-hydroxyphenyl)isoxazole-5-yl)phenyl)acetamide] | decreased | rather increased | further increased | – | –
Cc1ccc(C(=O)Nc2ccc(-c3cc(-c4ccc(O)cc4)no3)cc2)cc1 [ST-5-002, N-(4-(3-(4-hydroxyphenyl)isoxazole-5-yl)phenyl)-4-methylbenzamide] | decreased | rather increased | further increased | further increased | even higher
